± gives the standard deviation of the averaged measurements.
Key:
Assay in all cases: normalised growth rate inhibition (GR value) relative to DMSO control (GR (1 = untreated growth, 0 = cytostasis, <0 = cytotoxic)); higher = less growth inhibition
Details in all cases: 72 h
MDAMB231 = tested on: MDAMB231
Procedure: (§1)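 Breast cancer cell lines (BT-20, Hs 578T, MCF 10A, MCF7, MDA-MB-231, SK-BR-3) were plated in 384-well plates and treated 24 h later with drugs at six concentrations (0.04-10 µM). Viable cells were counted by Hoechst/dead-cell-stain imaging at 0 and 72 h. Counts were normalised to DMSO controls on the same plate to give the relative cell count and the growth-rate inhibition (GR) value; technical plate triplicates were averaged for each biological replicate.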

SKBR3 = tested on: SKBR3
Procedure: as §1

BT20 = tested on: BT20
Procedure: as §1

HS578T = tested on: HS578T
Procedure: as §1

MCF10A = tested on: MCF10A
Procedure: as §1

MCF7 = tested on: MCF7
Procedure: as §1

Compound | normalised growth rate inhibition (MDAMB231; 0.04 µM) | normalised growth rate inhibition (MDAMB231; 0.12 µM) | normalised growth rate inhibition (MDAMB231; 0.37 µM) | normalised growth rate inhibition (MDAMB231; 1.11 µM) | normalised growth rate inhibition (MDAMB231; 3.33 µM) | normalised growth rate inhibition (MDAMB231; 10 µM) | normalised growth rate inhibition (SKBR3; 0.04 µM) | normalised growth rate inhibition (SKBR3; 0.12 µM) | normalised growth rate inhibition (SKBR3; 0.37 µM) | normalised growth rate inhibition (SKBR3; 1.11 µM) | normalised growth rate inhibition (SKBR3; 3.33 µM) | normalised growth rate inhibition (SKBR3; 10 µM) | normalised growth rate inhibition (BT20; 0.04 µM) | normalised growth rate inhibition (BT20; 0.12 µM) | normalised growth rate inhibition (BT20; 0.37 µM) | normalised growth rate inhibition (BT20; 1.11 µM) | normalised growth rate inhibition (BT20; 3.33 µM) | normalised growth rate inhibition (BT20; 10 µM) | normalised growth rate inhibition (HS578T; 0.04 µM) | normalised growth rate inhibition (HS578T; 0.12 µM) | normalised growth rate inhibition (HS578T; 0.37 µM) | normalised growth rate inhibition (HS578T; 1.11 µM) | normalised growth rate inhibition (HS578T; 3.33 µM) | normalised growth rate inhibition (HS578T; 10 µM) | normalised growth rate inhibition (MCF10A; 0.04 µM) | normalised growth rate inhibition (MCF10A; 0.12 µM) | normalised growth rate inhibition (MCF10A; 0.37 µM) | normalised growth rate inhibition (MCF10A; 1.11 µM) | normalised growth rate inhibition (MCF10A; 3.33 µM) | normalised growth rate inhibition (MCF10A; 10 µM) | normalised growth rate inhibition (MCF7; 0.04 µM) | normalised growth rate inhibition (MCF7; 0.12 µM) | normalised growth rate inhibition (MCF7; 0.37 µM) | normalised growth rate inhibition (MCF7; 1.11 µM) | normalised growth rate inhibition (MCF7; 3.33 µM) | normalised growth rate inhibition (MCF7; 10 µM)
O=C(Nc1cccc(Nc2ncc(Br)c(NCCc3cnc[nH]3)n2)c1)N1CCCC1 [BX-912] | 0.903 ± 0.0098 | 0.901 ± 0.083 | 0.694 ± 0.32 | 0.404 ± 0.23 | 0.194 ± 0.14 | -0.0228 ± 0.27 | 0.724 ± 0.1 | 0.719 ± 0.089 | 0.175 ± 0.19 | -0.0702 ± 0.08 | -0.0412 ± 0.053 | -0.0312 ± 0.089 | 0.8964 ± 0.0089 | 0.943 ± 0.034 | 0.936 ± 0.034 | 0.939 ± 0.032 | 0.839 ± 0.12 | 0.355 ± 0.13 | 0.967 ± 0.021 | 0.906 ± 0.045 | 0.756 ± 0.16 | 0.375 ± 0.042 | 0.143 ± 0.076 | -0.103 ± 0.14 | 0.95 ± 0.0022 | 0.92 ± 0.062 | 0.648 ± 0.3 | 0.206 ± 0.067 | 0.172 ± 0.068 | 0.0883 ± 0.057 | 0.816 ± 0.053 | 0.866 ± 0.058 | 0.731 ± 0.17 | 0.459 ± 0.1 | 0.293 ± 0.063 | 0.0193 ± 0.03
N#CCNC(=O)c1ccc(-c2ccnc(Nc3ccc(N4CCOCC4)cc3)n2)cc1 [CYT387] | 0.859 ± 0.059 | 0.777 ± 0.053 | 0.678 ± 0.087 | 0.527 ± 0.18 | 0.36 ± 0.28 | -0.112 ± 0.2 | 0.841 ± 0.15 | 0.8 ± 0.16 | 0.789 ± 0.12 | 0.687 ± 0.12 | 0.509 ± 0.11 | 0.0674 ± 0.037 | 0.926 ± 0.072 | 0.871 ± 0.038 | 0.837 ± 0.083 | 0.748 ± 0.046 | 0.576 ± 0.073 | 0.0633 ± 0.1 | 0.931 ± 0.031 | 0.851 ± 0.022 | 0.762 ± 0.024 | 0.638 ± 0.043 | 0.447 ± 0.12 | 0.046 ± 0.14 | 0.959 ± 0.023 | 0.924 ± 0.032 | 0.868 ± 0.038 | 0.799 ± 0.047 | 0.649 ± 0.1 | 0.185 ± 0.11 | 0.912 ± 0.024 | 0.896 ± 0.098 | 0.83 ± 0.092 | 0.628 ± 0.083 | 0.332 ± 0.2 | 0.0654 ± 0.039
CS(=O)(=O)N1CCN(Cc2cc3nc(-c4cccc5[nH]ncc45)nc(N4CCOCC4)c3s2)CC1 [GDC-0941] | 0.784 ± 0.092 | 0.797 ± 0.069 | 0.715 ± 0.011 | 0.676 ± 0.056 | 0.644 ± 0.053 | 0.372 ± 0.1 | 0.384 ± 0.11 | 0.283 ± 0.088 | 0.131 ± 0.099 | 0.0555 ± 0.16 | 0.00405 ± 0.15 | -0.0817 ± 0.19 | 0.717 ± 0.053 | 0.689 ± 0.067 | 0.502 ± 0.17 | 0.258 ± 0.19 | 0.0678 ± 0.098 | -0.056 ± 0.052 | 0.779 ± 0.032 | 0.675 ± 0.031 | 0.568 ± 0.088 | 0.466 ± 0.1 | 0.408 ± 0.096 | 0.263 ± 0.077 | 0.869 ± 0.15 | 0.792 ± 0.18 | 0.625 ± 0.21 | 0.427 ± 0.14 | 0.289 ± 0.087 | 0.102 ± 0.038 | 0.331 ± 0.1 | 0.176 ± 0.079 | 0.0196 ± 0.047 | -0.00416 ± 0.0071 | -0.0358 ± 0.013 | -0.081 ± 0.069
COc1cc(N2CCC(C(N)=O)CC2)ccc1Nc1nc(N)c(Cl)c(Nc2ccccc2S(=O)(=O)C(C)C)n1 [HG-5-88-01] | 0.794 ± 0.12 | 0.861 ± 0.12 | 0.791 ± 0.11 | 0.796 ± 0.14 | 0.783 ± 0.17 | 0.451 ± 0.089 | 0.548 ± 0.13 | 0.691 ± 0.1 | 0.678 ± 0.073 | 0.699 ± 0.08 | 0.641 ± 0.17 | 0.133 ± 0.15 | 0.747 ± 0.087 | 0.921 ± 0.066 | 0.937 ± 0.039 | 0.887 ± 0.022 | 0.846 ± 0.048 | 0.404 ± 0.013 | 0.942 ± 0.016 | 0.933 ± 0.04 | 0.885 ± 0.015 | 0.8637 ± 0.0081 | 0.839 ± 0.022 | 0.664 ± 0.034 | 0.933 ± 0.075 | 0.879 ± 0.09 | 0.766 ± 0.14 | 0.709 ± 0.16 | 0.627 ± 0.2 | 0.452 ± 0.11 | 0.635 ± 0.082 | 0.602 ± 0.04 | 0.493 ± 0.081 | 0.364 ± 0.071 | 0.208 ± 0.11 | -0.0672 ± 0.054
CNC(=O)c1ccc(Nc2cc(Nc3ccccc3S(=O)(=O)C(C)C)c3cc[nH]c3n2)nc1 [HG-5-113-01] | 0.969 ± 0.058 | 0.888 ± 0.068 | 0.705 ± 0.12 | 0.35 ± 0.19 | 0.123 ± 0.089 | -0.0611 ± 0.15 | 0.875 ± 0.062 | 0.798 ± 0.16 | 0.514 ± 0.3 | 0.0629 ± 0.15 | -0.121 ± 0.069 | -0.148 ± 0.12 | 0.953 ± 0.041 | 0.8835 ± 0.0077 | 0.785 ± 0.069 | 0.601 ± 0.057 | 0.295 ± 0.051 | -0.158 ± 0.11 | 0.9393 ± 0.0065 | 0.9 ± 0.013 | 0.77 ± 0.043 | 0.443 ± 0.17 | 0.109 ± 0.13 | -0.0329 ± 0.066 | 0.968 ± 0.013 | 0.92 ± 0.036 | 0.851 ± 0.034 | 0.713 ± 0.031 | 0.312 ± 0.16 | -0.0419 ± 0.062 | 0.866 ± 0.069 | 0.718 ± 0.18 | 0.399 ± 0.21 | 0.163 ± 0.11 | 0.064 ± 0.018 | -0.222 ± 0.1
COc1cc(OC)cc(-c2ccc3ncc4ccc(=O)n(-c5ccc(N6CCNCC6)c(C(F)(F)F)c5)c4c3c2)c1 [JW-7-24-1] | 0.823 ± 0.12 | 0.859 ± 0.088 | 0.754 ± 0.09 | 0.624 ± 0.12 | 0.543 ± 0.11 | -0.122 ± 0.17 | 0.615 ± 0.034 | 0.695 ± 0.042 | 0.591 ± 0.047 | 0.457 ± 0.038 | 0.273 ± 0.041 | -0.224 ± 0.14 | 0.797 ± 0.057 | 0.876 ± 0.078 | 0.822 ± 0.08 | 0.755 ± 0.18 | 0.61 ± 0.25 | -0.0316 ± 0.17 | 0.929 ± 0.017 | 0.89 ± 0.039 | 0.765 ± 0.034 | 0.581 ± 0.029 | 0.384 ± 0.037 | -0.198 ± 0.14 | 0.986 ± 0.034 | 0.986 ± 0.044 | 0.952 ± 0.069 | 0.911 ± 0.11 | 0.84 ± 0.15 | 0.176 ± 0.17 | 0.607 ± 0.09 | 0.551 ± 0.07 | 0.373 ± 0.12 | 0.236 ± 0.08 | 0.139 ± 0.078 | -0.135 ± 0.0036
